{
  "source": "patent US5373020A",
  "about": "“Substituted 5-(2-((2-aryl-2-hydroxyethyl)amino)propyl)-1,3-benzodioxoles” (American Cyanamid Company, priority 1993, dated 1994)",
  "target": "T1, β3-receptors (Rattus norvegicus, UniProt P26255)",
  "T1 construct": "Rat epididymal fat pads were excised and placed in 0.9% saline; from tissue; host or cells: collagenase-isolated adipocytes from rat epididymal fat pads",
  "T1 sequence (P26255 whole entry)": "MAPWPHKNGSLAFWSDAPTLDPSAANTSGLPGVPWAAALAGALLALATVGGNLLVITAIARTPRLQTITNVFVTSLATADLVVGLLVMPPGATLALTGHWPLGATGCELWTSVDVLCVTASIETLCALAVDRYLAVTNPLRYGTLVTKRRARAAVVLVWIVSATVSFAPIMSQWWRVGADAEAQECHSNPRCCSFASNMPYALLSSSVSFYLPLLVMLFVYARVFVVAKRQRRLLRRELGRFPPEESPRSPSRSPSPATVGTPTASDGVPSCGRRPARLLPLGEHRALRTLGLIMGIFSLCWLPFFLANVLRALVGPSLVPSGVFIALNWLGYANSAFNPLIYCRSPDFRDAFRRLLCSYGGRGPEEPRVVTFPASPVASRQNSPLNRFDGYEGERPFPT",
  "test": "Stimulation of adipocyte lipolysis (β3-effect)",
  "format": "cell-based",
  "method": "β-Adrenergic receptors can be divided into β1, β2 and β3 -subtypes. Activation of β1 -receptors invokes increases in heart rate while activation of β2 -receptors stimulates glycogen breakdown in muscle and thereby prevents glycogen synthesis. Activation of β3 -receptors stimulates lipolysis (the breakdown of adipose tissue triglycerides to glycerol and free fatty acids), and thereby promotes the loss of fat mass.\nThe β3 -effect of the compounds was determined by their ability to stimulate adipocyte lipolysis. Rat epididymal fat pads were excised and placed in 0.9% saline. Four grams of tissue were transferred to a flask with 20 ml of aerated Krebs-Henseleit bicarbonate (KHB) buffer containing 3% fatty acid-free bovine serum albumin to which 75 mg of crude bacterial collagenase (Worthington) had been added. The tissue was incubated for about 45 minutes at 37° C. with gentle shaking. The cells were then washed three times with two volumes of KHB buffer, filtered through two layers of gauze, and brought to a final volume of 80 ml with KHB buffer. One ml aliquots of the cell suspension were added to plastic test tubes containing the appropriate additions of vehicle or compound. The cells were gassed for 1 minute with 95% O2 -5% CO2, capped, and incubated at 37° C. with continuous shaking for a total of 30 minutes. The reaction was stopped by adding 0.1 ml of 30% perchloric acid and 0.1 ml of chloroform. After centrifugation, 0.5 ml of supernatant was transferred to another test tube and neutralized with 0.04 ml of 3M K2 CO3 -0.5M triethanolamine. The amount-of glycerol generated from the hydrolysis of endogenous triglycerides was determined in a coupled-enzyme spectrophotometric assay. […] The test tubes were incubated for 40 minutes at 37° C. with constant shaking. […] This value was corrected for the amount of NADH generated in the absence of glycerol by incubating another aliquot of the neutralized extract with the same assay mixture but without glycerokinase.",
  "note": "Counter-ions that a name gives are not always drawn.",
  "data": [
    {"smiles": "COC(=O)C1(C(=O)OC)Oc2ccc(C[C@@H](C)NC[C@H](O)c3cccc(Cl)c3)cc2O1", "note": "(stereo in doubt) [CL1, (R* R*)-(±)-5-(2-((2-(3-chlorophenyl)-2-hydroxyethyl)amino)propyl)-1,3-benzodioxole-2,2-dicarboxylic acid, dimethyl ester hydrobromide]", "values": [
      {"measurement": "times more selective for lipolysis than prior art compound", "setting": "CL2 vs BRL2, CL1 vs BRL1", "result": 3, "unit": "times"},
      {"measurement": "Relative Selectivity (CL/BRL), Atria", "setting": "CL2 vs BRL2, CL1 vs BRL1, lipolysis over atria", "result": 3.1},
      {"measurement": "Relative Selectivity (CL/BRL), Gly. Syn.", "setting": "CL2 vs BRL2, CL1 vs BRL1, lipolysis over glycogen synthesis", "result": 3.0},
      {"measurement": "Selectivity for Lipolysis over Atria ((EC50 - β1)/(EC50 - β3))", "setting": "ratio EC50 β1 / EC50 β3", "result": 47},
      {"measurement": "Selectivity for Lipolysis over Gly. Syn. ((EC50 - β2)/(EC50 - β3))", "setting": "ratio EC50 β2 / EC50 β3", "result": 27}
    ]}
  ]
}
